Data taken from patent US6048893A, “Substituted phenyl compounds with a substituent having A 1,3-benzodioxole ring” (Rhone-Poulenc Rorer Limited, priority 1995, dated 2000).
Non-standard residues stand in square brackets, D forms with d. Residues, ends and D or L forms follow the SMILES beside them.

Tests used:
[1] = test system: hamster bleomycin model; conditions: cited from earlier work
[2] = biological target: T1, rat cerebellum ETB receptors (Rattus norvegicus, UniProt P21451); assay: Inhibition of [125I]-ET-1 binding to rat cerebellum ETB receptors; conditions: [125I]-ET-1 20 pM, 2 hours at 37 C; read-out: concentration producing 50% inhibition of the binding of [125I]-ET-1 to rat cerebellum ETB receptors
T1 construct: from tissue; host or cells: rat cerebellum, particulate fraction (4000 g pellet)
T1 sequence (P21451 27-442): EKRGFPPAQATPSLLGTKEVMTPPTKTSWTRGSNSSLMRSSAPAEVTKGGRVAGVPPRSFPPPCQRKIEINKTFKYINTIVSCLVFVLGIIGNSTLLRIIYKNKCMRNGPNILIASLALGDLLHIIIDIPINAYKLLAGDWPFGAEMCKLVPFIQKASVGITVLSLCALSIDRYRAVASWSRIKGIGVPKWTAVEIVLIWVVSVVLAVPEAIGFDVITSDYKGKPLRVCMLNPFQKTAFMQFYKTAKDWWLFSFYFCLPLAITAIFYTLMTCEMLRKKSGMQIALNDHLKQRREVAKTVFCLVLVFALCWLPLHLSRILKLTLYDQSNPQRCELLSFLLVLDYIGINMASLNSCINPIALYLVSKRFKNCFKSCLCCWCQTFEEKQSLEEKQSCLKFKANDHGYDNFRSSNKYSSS
Description: B) Preparation of ETB Receptors:
Rats are killed by cervical dislocation and the cerebellum tissue is removed into ice cold Tris buffer pH 7.4 containing sucrose (0.25M), ethylenediaminetetracetic acid (3 mM), and a cocktail of protease inhibitors. After homogenizing using a glass/teflon manual homogenizer, the samples are centrifuged at 4-- C for 17 minutes at 1000 g, and the resulting supernatants are retained. This material is centrifuged at 4000 g for 35 minutes at 4-- C and the pellets are resuspended in 50 mM Tris buffer pH 7.4, and the protein concentration is measured. Aliquots of […] are frozen in a mixture of methanol and solid carbon dioxide and stored at -20-- C until required. For use in the assay samples are diluted to the required concentration with Tris buffer pH 7.4 containing 0.1% bovine serum albumin.
Assays are performed using Millipore 96 well filtration plates with 0.22 μm filters in a final volume of […]. Mixtures consisting of test compound and [^125 I]-ET-1 (20 pM) in buffer pH 7.4 containing 0.1% bovine serum albumin are treated with either A10 cells or cerebellum protein. Total and non-specific binding are measured in the absence and presence of unlabeled ET-1 (100 nM). Approximately 60,000 A10 cells are used per well or 5 μg of cerebellum protein. Plates are incubated for 2 hours at 37-- C before the reaction is terminated by vacuum filtration. […]

[3] = biological target: T2, A10 cell ETA receptors (Rattus norvegicus, UniProt P26684); assay: Inhibition of [125I]-ET-1 binding to A10 cell ETA receptors; conditions: [125I]-ET-1 20 pM, 2 hours at 37 C; read-out: concentration producing 50% inhibition of the binding of [125I]-ET-1 to A10 cell ETA receptors
T2 construct: endogenous in cells; host or cells: A10 cells (frozen cells, about 60,000 per well)
T2 sequence (P26684 21-426): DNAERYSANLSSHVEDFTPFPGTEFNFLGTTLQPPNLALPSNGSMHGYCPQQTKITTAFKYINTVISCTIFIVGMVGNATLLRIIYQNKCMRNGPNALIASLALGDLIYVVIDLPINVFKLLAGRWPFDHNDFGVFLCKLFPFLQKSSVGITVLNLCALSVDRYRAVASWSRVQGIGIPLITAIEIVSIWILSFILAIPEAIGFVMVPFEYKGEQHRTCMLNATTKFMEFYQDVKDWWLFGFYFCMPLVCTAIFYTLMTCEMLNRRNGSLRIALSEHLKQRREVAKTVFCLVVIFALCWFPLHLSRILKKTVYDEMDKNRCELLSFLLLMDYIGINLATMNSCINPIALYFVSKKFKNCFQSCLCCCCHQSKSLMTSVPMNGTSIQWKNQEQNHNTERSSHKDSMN
Description: A) Preparation of ETA Receptors:
A10 cells are grown to confluence in Dulbecco's modified essential medium containing 10% foetal calf serum. Two days after the final medium change cells are harvested by scraping from the base of the flask and centrifuged at 1500 rpm for 10 minutes at 4-- C in an bench centrifuge. The resulting pellets are washed in 50 mM Hepes buffer pH 7.3 containing calcium chloride (1 mM) and magnesium chloride (5 mM) and resuspended at a density of 140,000 cells/ml in the same. Cell suspensions are then frozen using a mixture of methanol and solid carbon dioxide and stored at -20-- C until required. For use in the assay cells are diluted to the required density with Hepes buffer pH 7.3.
Assays are performed using Millipore 96 well filtration plates with 0.22 μm filters in a final volume of […]. Mixtures consisting of test compound and [^125 I]-ET-1 (20 pM) in buffer pH 7.4 containing 0.1% bovine serum albumin are treated with either A10 cells or cerebellum protein. Total and non-specific binding are measured in the absence and presence of unlabeled ET-1 (100 nM). Approximately 60,000 A10 cells are used per well or 5 μg of cerebellum protein. Plates are incubated for 2 hours at 37-- C before the reaction is terminated by vacuum filtration. Plates are washed twice with assay buffer at 4-- C and the filters are punched out for gamma counting.

IC50 [3] | SMILES | anti-fibrotic effect [1] | IC50 [2]
 | CC(C)C[C@@H]1NC(=O)[C@@H](C(C)C)NC(=O)[C@@H]2CCCN2C(=O)[C@@H](CC(=O)O)NC(=O)[C@@H](Cc2c[nH]c3ccccc23)NC1=O [BQ123] (cyclo(L[dW][dD]P[dV])) | anti-fibrotic effects | 
0.006 µM | Cc1ccccc1[C@H](Oc1cc(OCc2ccc3c(c2)OCO3)ccc1C#N)C(=O)O |  | 35 µM
